Assay results taken from PMC8311653, “Design, Synthesis, In Vitro and In Vivo Characterization of Selective NKCC1 Inhibitors for the Treatment of Core Symptoms in Down Syndrome” (Journal of Medicinal Chemistry, 2021).
Values after ≈ are worked out from the molar mass of the structure shown. “Also recorded” adds a separate entry of the source.

Key:
NKCC1 = biological target: T1, NKCC1 (Homo sapiens, UniProt P55011); assay: Cl- influx assay in NKCC1-transfected HEK293 cells; format: cell-based; details: for inhibition at 10 µM: HEK293, read-out: Inhibition 10 μM Cl- influx (%); for inhibition at 100 µM: HEK293, read-out: Inhibition 100 μM Cl- influx (%); for Inhibition 10 μM Cl- influx (%) / Inhibition 100 μM Cl- influx (%): NKCC1-transfected HEK293 cells
T1 construct: host or cells: HEK293
T1 sequence (P55011 1-1212): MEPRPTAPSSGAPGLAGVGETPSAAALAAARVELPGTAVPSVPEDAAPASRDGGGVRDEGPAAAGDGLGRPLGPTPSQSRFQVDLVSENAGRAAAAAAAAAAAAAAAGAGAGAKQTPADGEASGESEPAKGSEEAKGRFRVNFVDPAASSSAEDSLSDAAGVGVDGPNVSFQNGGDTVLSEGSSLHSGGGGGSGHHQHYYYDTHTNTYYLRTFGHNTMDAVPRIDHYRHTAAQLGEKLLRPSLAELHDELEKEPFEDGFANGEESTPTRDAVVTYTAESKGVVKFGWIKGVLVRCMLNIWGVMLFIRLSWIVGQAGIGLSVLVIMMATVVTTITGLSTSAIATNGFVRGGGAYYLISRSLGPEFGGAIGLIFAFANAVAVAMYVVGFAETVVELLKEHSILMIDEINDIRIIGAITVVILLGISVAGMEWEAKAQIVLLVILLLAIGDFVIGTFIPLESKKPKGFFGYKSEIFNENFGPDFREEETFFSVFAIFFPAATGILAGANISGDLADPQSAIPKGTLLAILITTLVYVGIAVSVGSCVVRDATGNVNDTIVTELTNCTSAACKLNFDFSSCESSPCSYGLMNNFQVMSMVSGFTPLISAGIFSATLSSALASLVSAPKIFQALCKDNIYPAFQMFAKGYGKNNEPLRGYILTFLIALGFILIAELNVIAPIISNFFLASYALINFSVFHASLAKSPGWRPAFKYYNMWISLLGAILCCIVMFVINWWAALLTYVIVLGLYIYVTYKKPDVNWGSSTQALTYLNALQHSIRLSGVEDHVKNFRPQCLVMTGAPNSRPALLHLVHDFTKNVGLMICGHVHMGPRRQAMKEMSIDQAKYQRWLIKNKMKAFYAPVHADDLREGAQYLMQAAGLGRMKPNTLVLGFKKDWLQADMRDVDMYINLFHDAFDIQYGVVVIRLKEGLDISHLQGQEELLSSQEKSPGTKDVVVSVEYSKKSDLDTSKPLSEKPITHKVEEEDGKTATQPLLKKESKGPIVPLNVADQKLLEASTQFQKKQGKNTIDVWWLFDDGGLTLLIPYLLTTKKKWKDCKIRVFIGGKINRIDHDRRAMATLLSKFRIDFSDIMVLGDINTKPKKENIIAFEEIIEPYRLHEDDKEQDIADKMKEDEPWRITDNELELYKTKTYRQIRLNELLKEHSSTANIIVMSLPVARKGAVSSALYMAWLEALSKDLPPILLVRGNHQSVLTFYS
Method: HEK293 cells were cultured in Dulbecco’s modified Eagle’s medium (DMEM) supplemented with 10% fetal bovine serum, 1% L-glutamine, 100 U/mL penicillin, and 100 μg/mL streptomycin and maintained at 37 °C in a 5% CO2 humidified atmosphere. To assess NKCC1 and NKCC2 activity (Cl^– influx assay), 3 million HEK cells were plated in a 10 cm cell-culture dish and transfected with a transfection mixture comprising 5 mL of DMEM, 4 mL of Opti-MEM, 8 μg of DNA plasmid coding for NKCC1 (PRK-NKCC1 obtained from Medical Research Council and the University of Dundee), NKCC2 (OriGene plasmid #RC216145) subcloned in PRK5 plasmid, or mock control (empty vector), together with 8 μg of a plasmid coding for the Cl^–-sensitive variant of the membrane-targeted fluorescent protein YFP, mbYFPQS (Addgene plasmid #80742),[53] and 32 μL of Lipofectamin 2000. To assess KCC2 activity (Tl influx assay), cells were transfected with 8 μg of KCC2[54] subcloned in the PRK5 plasmid or mock control (empty vector) and 16 μL of Lipofectamin 2000. After 4 h, the cells were collected and plated in 96-well black-walled, clear-bottomed plates at a density of 2.5 × 10^4. After 48 h, cells were used for the Cl^– or Tl influx assays. All reagents were purchased from Life Technologies, unless otherwise specified.
Transfected cells were treated with 10 μM or 100 μM bumetanide (as positive controls), DMSO (as the negative control), or with each of our compounds in 100 μL/well of a Cl^–-free hypotonic solution (67.5 mM Na^+ gluconate, 2.5 mM K^+ gluconate, 15 mM HEPES pH 7.4, 50 mM glucose, 1 mM Na2HPO4, 1 mM NaH2PO4, 1 mM MgSO4, and 1 mM CaSO4). After 30 min of incubation, plates were loaded into a Victor 3V (PerkinElmer) multiplate reader equipped with an automatic liquid injector system, and fluorescence of Cl^–-sensitive mbYFPQS was recorded with excitation at 485 nm and emission at 535 nm. For each well, fluorescence was first recorded for 20 s of the baseline and for 60 s after delivery of a NaCl concentrated solution (74 mM final concentration in the assay well). Fluorescence of Cl^–-sensitive mbYFPQS is inversely correlated to the intracellular Cl^– concentration;[53] therefore, chloride influx into the cells determined a decrease in mbYFPQS fluorescence. To represent the fluorescent traces in time, we normalized the fluorescence value for each time point to the average of the fluorescence value of the first 20 s of the baseline (ΔF/F0). To quantify the average effects as represented by the bar plots, we expressed the decrease in fluorescence upon NaCl application as the average of the last 10 s of ΔF/F0 normalized traces. Moreover, for each experiment, to account for the contribution of Cl^– changes that were dependent on transporters/exchangers other than NKCC1 or NKCC2, we subtracted the value of the last 10 s of ΔF/F0 normalized traces obtained from mock-transfected cells (either control or treated) from the respective ΔF/F0 value obtained from the cells transfected with NKCC1 or NKCC2. We then presented in the figures all the data as a percentage of the fluorescence decrease versus the value of the control DMSO.

[1] = Aqueous kinetic solubility in PBS pH 7.4; format: physicochemical; details: phosphate buffered saline (PBS); aqueous kinetic solubility from 10 mM DMSO solution in PBS pH 7.4; target concentration 250 μM (final DMSO 2.5%)
Method: 1. Aqueous kinetic solubility.
30 µL aliquots of 10 mM DMSO stock solution of the test compound were incubated in Phosphate
Buffered Saline (PBS) at pH 7.4 at 25°C for 24h. After centrifugation the dissolved compound in the
supernatant was quantified by LC-MS/MS.
Aqueous kinetic solubility was determined by UV quantification at
215 nm. […]

[2] = In vitro metabolic stability in mouse liver microsomes; details: tissue homogenate, pH 7.4
Method: 1. Aqueous kinetic solubility. […]
3. In vitro mouse microsomial stability. […]
microsomes (Sekisui Xenotech, LCC), 0.1M Tris-HCl buffer (pH 7.4), and 10% DMSO. The final […]
After pre-incubation, the cofactors (NADPH, G6P, G6PDH, MgCl2 pre-dissolved in 0.1M Tris-HCl) were added to the incubation mixture and the incubation was continued at 37 °C for 1h. At each time point (0, 5, 15, 30, 60 min), 30µL of incubation mixture was diluted with 200 µL cold acetonitile spiked with 200 nM of warfarin as internal standard, followed by centrifugation at 3500 g for 30 min. The supernatant was further diluted with H2O (1:1) for analysis.
An aliquot of 200 µl of the supernatant was removed, and the concentration of the test compound was […]
quantified by LC-MS/MS. The percentage of the test compound remaining at each time point relative […]
to t=0 was calculated. The half-lives (t½) were determined by a one-phase decay equation using a […]
non-linear regression of compound concentration vs time.

Structure (SMILES)	inhibition at 10 µM (NKCC1) [%]	inhibition at 100 µM (NKCC1) [%]	solubility at 24 h [1] [µM]	half-life at 5 μM [2] [min]	Inhibition 10 μM Cl- influx (%) (NKCC1)	Inhibition 100 μM Cl- influx (%) (NKCC1)
CCCCCCNc1ccc([N+](=O)[O-])cc1S(=O)(=O)NC [Compound 3, 2-(Hexylamino)-N-methyl-5-nitro-benzenesulfonamide]	6.4 ± 3.4	29.4 ± 2.8	1 (≈ 0.315 µg/mL)	< 5	–	–
CNS(=O)(=O)c1cc([N+](=O)[O-])ccc1NCCC(C)(C)C [Compound 4, 2-(3,3-Dimethylbutylamino)-N-methyl-5-nitro-benzenesulfonamide]	17.7 ± 3.9	28.7 ± 4.4	3 (≈ 0.946 µg/mL)	6	–	–
CCCCNc1ccc([N+](=O)[O-])cc1S(N)(=O)=O [Compound 5, 2-(Butylamino)-5-nitro-benzenesulfonamide]	–	4.7 ± 13.3	85 (≈ 23.2 µg/mL)	6	Inactive	–
CCCCCCNc1ccc([N+](=O)[O-])cc1S(N)(=O)=O [Compound 6, 2-(Hexylamino)-5-nitro-benzenesulfonamide]	–	3.8 ± 5.6	6 (≈ 1.81 µg/mL)	< 5	no inhibitory activity; also recorded: Inactive	–
CCCCCCCCNc1ccc([N+](=O)[O-])cc1S(N)(=O)=O [Compound 7, 5-Nitro-2-(octylamino)benzenesulfonamide]	0.3 ± 2.9	5.8 ± 6.8	< 1	< 5	–	–
CC(C)(C)CCNc1ccc([N+](=O)[O-])cc1S(N)(=O)=O [Compound 8, 2-(3,3-Dimethylbutylamino)-5-nitro-benzenesulfonamide]	–	14.5 ± 10.6	–	–	Inactive	–
CCCCNc1ccc([N+](=O)[O-])cc1S(=O)(=O)NC [Compound 9, 2-(Butylamino)-N-methyl-5-nitro-benzenesulfonamide]	–	13.3 ± 11.4	–	–	Inactive	–
CCCCCCCCNc1ccc([N+](=O)[O-])cc1S(=O)(=O)NC [Compound 10, N-Methyl-5-nitro-2-(octylamino)benzenesulfonamide]	–	–	–	–	Inactive	Inactive
CCCCNc1ccc([N+](=O)[O-])cc1S(=O)(=O)N(C)C [Compound 11, 2-(Butylamino)-N,N-dimethyl-5-nitro-benzenesulfonamide]	–	15.2 ± 9.6	–	–	Inactive	–
CCCCCCNc1ccc([N+](=O)[O-])cc1S(=O)(=O)N(C)C [Compound 12, 2-(Hexylamino)-N,N-dimethyl-5-nitro-benzenesulfonamide]	–	4.9 ± 6.8	1 (≈ 0.329 µg/mL)	< 5	Inactive	–
CCCCCCCCNc1ccc([N+](=O)[O-])cc1S(=O)(=O)N(C)C [Compound 13, N,N-Dimethyl-5-nitro-2-(octylamino)benzenesulfonamide]	–	–	–	–	Inactive	Inactive
CN(C)S(=O)(=O)c1cc([N+](=O)[O-])ccc1NCCC(C)(C)C [Compound 14, 2-(3,3-Dimethylbutylamino)-N,N-dimethyl-5-nitro-benzenesulfonamide]	10 ± 4.9	17 ± 11.9	–	–	–	–
CCCCNc1ccc(C(=O)O)cc1S(N)(=O)=O [Compound 15, 4-(Butylamino)-3-sulfamoyl-benzoic Acid]	–	6.4 ± 5.3	–	–	Inactive	–
CCCCCCNc1ccc(C(=O)O)cc1S(N)(=O)=O [Compound 16, 4-(Hexylamino)-3-sulfamoyl-benzoic Acid]	–	4.9 ± 3.7	238 (≈ 71.5 µg/mL)	> 60	Inactive	–
CC(C)(C)CCNc1ccc(C(=O)O)cc1S(N)(=O)=O [Compound 18, 4-(3,3-Dimethylbutylamino)-3-sulfamoyl-benzoic Acid]	–	5.1 ± 4.9	–	–	Inactive	–
CCCCNc1ccc(C(=O)O)cc1S(=O)(=O)NC [Compound 19, 4-(Butylamino)-3-(-N-methylsulfamoyl)benzoic Acid]	6.4 ± 2.1	6.2 ± 5.7	–	–	–	–
CNS(=O)(=O)c1cc(C(=O)O)ccc1NCCC(C)(C)C [Compound 22, 4-(-N-3,3-Dimethylbutylamino)-3-(methylsulfamoyl)benzoic Acid]	–	2.6 ± 3.5	–	–	Inactive	–
CCCCNc1ccc(C(=O)O)cc1S(=O)(=O)N(C)C [Compound 23, 4-(Butylamino)-3-(-N,N-dimethylsulfamoyl)benzoic Acid]	2.6 ± 2.8	15.6 ± 5.4	–	–	–	–
COCCCCCCNc1ccc(C(=O)O)cc1S(=O)(=O)N(C)C [Compound 31, 3-(-N,N-Dimethylsulfamoyl)-4-(6-methoxyhexylamino)benzoic Acid]	–	–	> 250	–	did not show any NKCC1 inhibition; also recorded: Inactive	did not show any NKCC1 inhibition; also recorded: Inactive
